Measured values as given in patent publication US8349571B2, “High content screening” (Cellaura Technologies Limited, priority 2004, dated 2013).
One block for each compound: values may come before it.

Columns and labels:
Type in all cases: cell-based
[1] = molecular target: T1, human A1-AR (Homo sapiens, UniProt P30542); assay: Live cell confocal imaging of fluorescent ligand binding in CHO-A1 cells; settings: 100 nM BY630-ABEA
T1 construct: expressed in transfected cells; host or cells: CHO-K1 (CHO-A1fos)
T1 sequence (P30542 1-326): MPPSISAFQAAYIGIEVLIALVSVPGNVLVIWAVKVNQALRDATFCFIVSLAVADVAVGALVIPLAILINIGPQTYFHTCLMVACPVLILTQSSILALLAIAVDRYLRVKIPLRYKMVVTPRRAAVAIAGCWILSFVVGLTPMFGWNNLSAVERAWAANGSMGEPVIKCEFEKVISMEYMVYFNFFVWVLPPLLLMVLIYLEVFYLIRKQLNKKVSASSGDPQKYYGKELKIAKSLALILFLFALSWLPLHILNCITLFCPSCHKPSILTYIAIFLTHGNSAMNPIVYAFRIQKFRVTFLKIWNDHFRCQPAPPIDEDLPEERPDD
Method: (§1) Functional studies were performed in CHO-K1 cells expressing both the human A1-AR and a c-fos-pGL3 reporter vector (CHO-A1fos cells). […] Luciferase expression was quantified using a Luclite® kit according to manufacturer's instructions. Live cell confocal imaging was carried out on CHO-A1 cells or CHO cells expressing the A1-AR tagged on the C-terminus with a green fluorescent protein (CHO-A1Tpz).

[2] = molecular target: T1, human A1-AR; assay: c-fos-pGL3 luciferase reporter functional study in CHO-A1fos cells
Method: as §1

[3] = molecular target: T2, A1-AR tagged on the C-terminus with a green fluorescent protein (Homo sapiens, UniProt P30542); assay: Live cell confocal imaging in CHO cells expressing A1-AR tagged with green fluorescent protein (CHO-A1Tpz)
T2 construct: expressed in transfected cells; host or cells: CHO (CHO-A1Tpz)
T2 sequence (P30542 1-326): T1 sequence (P30542 1-326)
Method: as §1

effect of preincubation on BY630-ABEA membrane binding ([1]; DPCPX 1 μM, 30 min preincubation): substantially reduced
Compound: CCCn1c(=O)c2[nH]c(C3CCCC3)nc2n(CCC)c1=O [DPCPX, 8-cyclopentyl-1,3-dipropylxanthine, reference compound]
effect on the response to BY630-ABEA ([2]; 100 nM DPCPX, n=3): completely blocked the response to BY630-ABEA

specificity of ligand binding from overlaid red and green channel images (FIG. 4B) ([3]; 100 nM, 30′, CHO cells (A1-R-Topaz)): ligand binding is specific to receptors
time after which binding of ligand to the membrane was detectable ([1]; CHO-A1 cells, n=3): 5 min
time after which binding of ligand to the membrane was substantial ([1]; CHO-A1 cells, n=3): 30 min
pEC50, stimulation of luciferase expression ([2]; CHO-A1fos cells, 5 h agonist stimulation, mean s.e.mean): 6.76±0.18
Compound: NECA-BODIPY 630/650 [BY630-ABEA]
co-localisation of ligand fluorescence with tagged receptor ([3]; CHO-A1Tpz cells): co-localisation of ligand fluorescence at the membrane with that from the fluorescently tagged A1-AR

specificity of ligand binding from overlaid red and green channel images (FIG. 4A) ([3]; 50 nM, 15′, CHO cells (A1-R-Topaz)): ligand binding is specific to receptors
Compound: XAC-BODIPY 630/650 [BODIPY-XAC]
